Assay results: ChEMBL document CHEMBL4680368, “Myeloid Cell Leukemia-1 Inhibitors as Emerging Cancer Treatment” (ACS Med Chem Lett, 2021)

System: not listed separately
Experiment: Induction of apoptosis in human MOLP8 cells assessed as increase in caspase 3/7 activation incubated for 2 hrs by luminometric caspase-glo 3/7 assay
Format: functional, cell-based
Conditions: MOLP-8, 2 h

Row | SMILES | AC50 [nM]
1 | C[C@@H]1[C@@H](C)C/C=C(\F)[C@H](CO)N2CC[C@H]2CN2C[C@@]3(CCCc4cc(Cl)ccc43)COc3ccc(cc32)C(=O)NS1(=O)=O | 144
2 | C[C@@H]1[C@@H](C)C/C=C(\F)[C@H](COc2ccccn2)N2CC[C@H]2CN2C[C@@]3(CCCc4cc(Cl)ccc43)COc3ccc(cc32)C(=O)NS1(=O)=O | 1490
3 | C[C@@H]1[C@@H](C)C/C=C(\F)CN2CC[C@H]2CN2C[C@@]3(CCCc4cc(Cl)ccc43)COc3ccc(cc32)C(=O)NS1(=O)=O | 692
4 | COC[C@H]1/C(F)=C/C[C@H](C)[C@@H](C)S(=O)(=O)NC(=O)c2ccc3c(c2)N(C[C@@H]2CCN21)C[C@@]1(CCCc2cc(Cl)ccc21)CO3 | 181
5 | C[C@@H]1[C@@H](C)C/C=C(\F)[C@H](CN2CCN3CCOC[C@@H]3C2)N2CC[C@H]2CN2C[C@@]3(CCCc4cc(Cl)ccc43)COc3ccc(cc32)C(=O)NS1(=O)=O | 120
6 | C[C@@H]1[C@@H](C)C/C=C(\F)[C@H](COCC(=O)O)N2CC[C@H]2CN2C[C@@]3(CCCc4cc(Cl)ccc43)COc3ccc(cc32)C(=O)NS1(=O)=O | 5990
7 | COCCOCC1(COCCOC)/C(F)=C/C[C@H](C)[C@@H](C)S(=O)(=O)NC(=O)c2ccc3c(c2)N(C[C@@H]2CCN21)C[C@@]1(CCCc2cc(Cl)ccc21)CO3 | 152
8 | C[C@@H]1[C@@H](C)C/C=C(\F)[C@H](COCCCN2CCOCC2)N2CC[C@H]2CN2C[C@@]3(CCCc4cc(Cl)ccc43)COc3ccc(cc32)C(=O)NS1(=O)=O | 231
9 | C[C@@H]1[C@@H](C)C/C=C(\F)C(CO)(CO)N2CC[C@H]2CN2C[C@@]3(CCCc4cc(Cl)ccc43)COc3ccc(cc32)C(=O)NS1(=O)=O | 2390
10 | COCCCOC[C@H]1/C(F)=C/C[C@H](C)[C@@H](C)S(=O)(=O)NC(=O)c2ccc3c(c2)N(C[C@@H]2CCN21)C[C@@]1(CCCc2cc(Cl)ccc21)CO3 | 274

Target: Induced myeloid leukemia cell differentiation protein Mcl-1 (Homo sapiens, UniProt Q07820)
Experiment: Inhibition of Terbium-labeled BIM BH3 peptide binding to MCL1 (unknown origin) incubated for 60 mins by HTRF assay
Conditions: not given

Induced myeloid leukemia cell differentiation protein Mcl-1, sequence (Q07820 whole entry): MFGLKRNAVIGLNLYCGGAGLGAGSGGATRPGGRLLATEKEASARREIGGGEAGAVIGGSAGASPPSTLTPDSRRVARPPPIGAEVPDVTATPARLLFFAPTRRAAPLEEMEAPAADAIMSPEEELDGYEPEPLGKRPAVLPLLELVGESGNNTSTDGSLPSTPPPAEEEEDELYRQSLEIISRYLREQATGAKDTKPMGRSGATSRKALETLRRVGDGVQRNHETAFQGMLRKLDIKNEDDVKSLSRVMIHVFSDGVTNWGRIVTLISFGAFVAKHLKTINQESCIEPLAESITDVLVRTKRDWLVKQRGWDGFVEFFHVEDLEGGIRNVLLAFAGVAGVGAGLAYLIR

Row | SMILES | Ki [nM]
11 | C[C@@H]1[C@@H](C)C/C=C(\F)CN2CC[C@H]2CN2C[C@@]3(CCCc4cc(Cl)ccc43)COc3ccc(cc32)C(=O)NS1(=O)=O | 0.84
12 | COCCOCC1(COCCOC)/C(F)=C/C[C@H](C)[C@@H](C)S(=O)(=O)NC(=O)c2ccc3c(c2)N(C[C@@H]2CCN21)C[C@@]1(CCCc2cc(Cl)ccc21)CO3 | 0.25
